Measurements: ChEMBL document CHEMBL1629541, “Synthesis and structure-activity relationships of aza- and diazabiphenyl analogues of the antitubercular drug (6S)-2-nitro-6-{[4-(trifluoromethoxy)benzyl]oxy}-6,7-dihydro-5H-imidazo[2,1-b][1,3]oxazine (PA-824)” (J Med Chem, 2010)
In brackets after ≈: the same amount, converted by molar mass.

Key:
[1] = system: Mycobacterium tuberculosis; experiment: microbe, parasite or virus in culture; details: H37Rv
[2] = system: Mycobacterium tuberculosis; experiment: microbe, parasite or virus in culture; details: H37Rv; remark: listed apart in the source
Description: Antitubercular activity against Mycobacterium tuberculosis H37Rv by LORA method

physchem [3] = details: water, pH 7
Description: Solubility of the compound in water at pH 7.0 by HPLC

in vitro [4] = details: CD1, mouse, liver microsomes
Description: Metabolic stability in CD1 mouse liver microsomes assessed as compound remaining after 1 hr

physchem [5] = details: water, pH 1
Description: Solubility of the compound in water at pH 1.0 by HPLC

in vitro [6] = details: human, liver microsomes
Description: Metabolic stability in human liver microsomes assessed as compound remaining after 1 hr

Row | SMILES | MIC [1] [µM] | MIC [2] [µM] | solubility (physchem [3]) [µg/mL] | remaining at 1 h (in vitro [4]) [%] | solubility (physchem [5]) [µg/mL] | remaining at 1 h (in vitro [6]) [%]
1 | O=[N+]([O-])c1cn2c(n1)OC[C@@H](OCc1ncc(-c3ccc(OC(F)F)cc3)cn1)C2 | 0.12 (≈ 0.0503 µg/mL) | 7.4 (≈ 3.1 µg/mL) | 7.8 (≈ 18.6 µM) | – | – | –
2 | O=[N+]([O-])c1cn2c(n1)OC[C@@H](OCc1cccc(-c3ccc(F)nc3)c1)C2 | 0.37 (≈ 0.137 µg/mL) | 5.1 (≈ 1.89 µg/mL) | 26 (≈ 70.2 µM) | – | – | –
3 | O=[N+]([O-])c1cn2c(n1)OC[C@@H](OCc1ncc(-c3ccc(OC(F)(F)F)cc3)cn1)C2 | 0.11 (≈ 0.0481 µg/mL) | 1.9 (≈ 0.831 µg/mL) | – | 87 | 5.1 (≈ 11.7 µM) | 92
4 | O=[N+]([O-])c1cn2c(n1)OC[C@@H](OCc1ccc(-c3ccc(F)cc3)nn1)C2 | 0.19 (≈ 0.0706 µg/mL) | 5.6 (≈ 2.08 µg/mL) | 8.3 (≈ 22.4 µM) | – | – | –
5 | O=[N+]([O-])c1cn2c(n1)OC[C@@H](OCc1cncc(-c3ccc(OC(F)F)cc3)c1)C2 | 0.53 (≈ 0.222 µg/mL) | 5.9 (≈ 2.47 µg/mL) | 9.2 (≈ 22 µM) | – | – | –
6 | O=[N+]([O-])c1cn2c(n1)OC[C@@H](OCc1cnc(-c3ccc(F)cc3)cn1)C2 | 0.085 (≈ 0.0316 µg/mL) | 2 (≈ 0.743 µg/mL) | 8.9 (≈ 24 µM) | – | – | –
7 | O=[N+]([O-])c1cn2c(n1)OC[C@@H](OCc1ccc(-c3ccc(C(F)(F)F)nc3)nc1)C2 | 0.19 (≈ 0.0801 µg/mL) | 17 (≈ 7.16 µg/mL) | 7 (≈ 16.6 µM) | – | – | –
8 | O=[N+]([O-])c1cn2c(n1)OC[C@@H](OCc1ccc(-c3ccncc3)cc1)C2 | 0.5 (≈ 0.176 µg/mL) | 9.2 (≈ 3.24 µg/mL) | 22 (≈ 62.4 µM) | – | – | –
9 | COc1ccc(-c2cc(CO[C@@H]3COc4nc([N+](=O)[O-])cn4C3)ccn2)cn1 | 1.3 (≈ 0.498 µg/mL) | 12 (≈ 4.6 µg/mL) | 93 (≈ 243 µM) | – | – | –
10 | O=[N+]([O-])c1cn2c(n1)OC[C@@H](OCc1ccc(-c3ccnc(F)c3)cn1)C2 | 1.7 (≈ 0.631 µg/mL) | 14 (≈ 5.2 µg/mL) | 42 (≈ 113 µM) | – | – | –
11 | O=[N+]([O-])c1cn2c(n1)OC[C@@H](OCc1ccc(-c3ccc(OC(F)(F)F)c(Cl)c3)cn1)C2 | 0.04 (≈ 0.0188 µg/mL) | 2.4 (≈ 1.13 µg/mL) | 0.85 (≈ 1.81 µM) | – | – | –
12 | O=[N+]([O-])c1cn2c(n1)OC[C@@H](OCc1ccc(-c3ccc(C(F)(F)F)nc3)cn1)C2 | 0.24 (≈ 0.101 µg/mL) | 16 (≈ 6.74 µg/mL) | 12 (≈ 28.5 µM) | – | – | –
13 | O=[N+]([O-])c1cn2c(n1)OC[C@@H](OCc1ccc(-c3cncc(F)c3)cn1)C2 | 2.6 (≈ 0.965 µg/mL) | 21 (≈ 7.8 µg/mL) | 130 (≈ 350 µM) | – | – | –
14 | O=[N+]([O-])c1cn2c(n1)OC[C@@H](OCc1ccc(-c3ccc(OC(F)F)cc3)nn1)C2 | 0.17 (≈ 0.0713 µg/mL) | 7.5 (≈ 3.15 µg/mL) | 1.3 (≈ 3.1 µM) | – | – | –
15 | O=[N+]([O-])c1cn2c(n1)OC[C@@H](OCc1ccc(-c3ccccn3)cc1)C2 | 0.21 (≈ 0.074 µg/mL) | 1.7 (≈ 0.599 µg/mL) | 7.3 (≈ 20.7 µM) | – | – | –
16 | O=[N+]([O-])c1cn2c(n1)OC[C@@H](OCc1ncc(-c3ccc(F)cc3)cn1)C2 | 0.13 (≈ 0.0483 µg/mL) | 12 (≈ 4.46 µg/mL) | 50 (≈ 135 µM) | – | – | –
17 | Nc1ccc(-c2ccc(CO[C@@H]3COc4nc([N+](=O)[O-])cn4C3)cc2)cn1 | 2.6 (≈ 0.955 µg/mL) | 19 (≈ 6.98 µg/mL) | 13 (≈ 35.4 µM) | – | – | –
18 | O=[N+]([O-])c1cn2c(n1)OC[C@@H](OCc1ccc(-c3cccc(F)n3)cn1)C2 | 1.4 (≈ 0.52 µg/mL) | 20 (≈ 7.43 µg/mL) | 41 (≈ 110 µM) | – | – | –
19 | O=[N+]([O-])c1cn2c(n1)OC[C@@H](OCc1cnc(-c3ccc(OC(F)F)cc3)cn1)C2 | 0.2 (≈ 0.0839 µg/mL) | 1.3 (≈ 0.545 µg/mL) | 5 (≈ 11.9 µM) | – | – | –
20 | COc1ccc(-c2cccc(CO[C@@H]3COc4nc([N+](=O)[O-])cn4C3)n2)cn1 | 0.71 (≈ 0.272 µg/mL) | 5.2 (≈ 1.99 µg/mL) | 14 (≈ 36.5 µM) | – | – | –
21 | O=[N+]([O-])c1cn2c(n1)OC[C@@H](OCc1ccnc(-c3ccc(OC(F)F)cc3)c1)C2 | 0.055 (≈ 0.023 µg/mL) | 2.7 (≈ 1.13 µg/mL) | 16 (≈ 38.2 µM) | – | – | –
22 | O=[N+]([O-])c1cn2c(n1)OC[C@@H](OCc1ccnc(-c3ccc(C(F)(F)F)cc3)c1)C2 | 0.075 (≈ 0.0315 µg/mL) | 4.4 (≈ 1.85 µg/mL) | 2.8 (≈ 6.66 µM) | – | – | –
23 | O=[N+]([O-])c1cn2c(n1)OC[C@@H](OCc1ccc(-c3ccncc3F)cc1)C2 | 0.56 (≈ 0.207 µg/mL) | 3.9 (≈ 1.44 µg/mL) | 16 (≈ 43.2 µM) | – | – | –
24 | O=[N+]([O-])c1cn2c(n1)OC[C@@H](OCc1cccc(-c3ccc(OCc4ccccc4)nc3)c1)C2 | 0.07 (≈ 0.0321 µg/mL) | 3 (≈ 1.38 µg/mL) | 0.15 (≈ 0.327 µM) | – | – | –
